{"source": "patent US20240199728A1", "about": "“METHODS OF TREATING OBESITY, DIABETES, AND LIVER DYSFUNCTION” (REGENERON PHARMACEUTICALS, INC., priority 2022, published 2024)", "assay_type_in_all_cases": "in vivo", "key": {"[1]": {"system": "diet-induced obesity (DIO) mouse model", "test": "Fed blood glucose, insulin and glucagon, DIO mice", "text": "(§1) DIO mice that have been fed a high fat diet for at least 20 weeks were distributed into 4 different groups balanced by body fat content as determined by MRI and blood glucose. On day 0, all mice were implanted with osmotic pumps (Alzet, Cat #2004), in which the stainless steel flow moderators were replaced with PEEK tubing (DURECT Corporation, Cat #0002496) to allow for MRI measurements during the experiment. Pumps for groups 1 and 2 contained PBS, while pumps used for groups 3 and 4 contained Semaglutide (0.833 mg/mL for […] infusion). The next day (day 1), mice were injected with their respective antibodies: group 1 and group 3: Isotype control (at 20 mg/kg); group 2 and group 4: anti-GDF8 antibody (REGN1033) & anti-Activin A antibody (REGN2477) (at 10 mg/kg each). The antibody injections were repeated on days 4 and 7 and once weekly after that.\n(§2) Body composition using MRI and fed blood glucose using a glucometer from tail bleeds were measured weekly in the morning. Mice were also bled for insulin measurements on a weekly basis. An oral glucose tolerance test (OGTT) was performed on day 23. For the OGTT, mice were fasted for 4 hours, and baseline glucose was measured. Subsequently, 2 g/kg glucose was administered to the mice by oral gavage, and glucose was measured again after 30, 60, 90, and 120 minutes. On day 26, 6 hour fasted blood glucose was measured, and mice were bled for insulin assessment as described above. At the end of the study (day 28/29), mice were sacrificed, and tissue (skeletal muscle, adipose, pancreas, heart, spleen, liver) was collected for weight and further analysis. Mouse plasma was used to measure circulating levels of ALT, AST, non-esterified fatty acids (NEFAs), triglycerides (trigs), and cholesterol (chol) on the Advia Chemistry Analyzer from Siemens. One lobe of the liver was fresh frozen to allow for triglyceride extraction and quantification using standard protocols. Another lobe of the liver and the pancreas were fixed in 10% formalin, embedded in paraffin, and sectioned for liver histology. H&E, as well as smooth muscle actin (SMA), staining was performed, and slides were subjected to quantification using Halo software. Paraffin sections of the pancreas were stained for insulin and glucagon to determine beta cell and alpha cell mass, respectively, using Halo software."}, "[2]": {"system": "diet-induced obesity (DIO) mouse model", "test": "Liver triglyceride extraction and liver histology (H&E, SMA staining), DIO mice", "details": "end of study", "text": "as §1, §2"}, "[3]": {"system": "diet-induced obesity (DIO) mouse model", "test": "Plasma ALT, AST, NEFA, triglycerides, cholesterol (Advia Chemistry Analyzer), DIO mice", "details": "end of study, first value of group (mean)", "text": "as §1\nas §2, with “Another lobe of the liver and the pancreas were fixed in 10% formalin, embedded in paraffin, and sectioned for liver histology.” left out, “Paraffin sections of the pancreas were stained for insulin and glucagon to determine beta cell and alpha cell mass, respectively, using Halo software.” left out"}, "[4]": {"system": "diet-induced obesity (DIO) mouse model", "test": "Body weight and body composition (MRI) over time in diet-induced obesity (DIO) mouse model", "set-up": "Body weight changes over time, Mean / Lean mass changes over time, Mean / Fat mass changes over time, Mean: unit not given here", "details": "DIO mice; for Fat mass changes over time, Mean / Lean mass changes over time, Mean: MRI", "text": "as §1, §2"}, "[5]": {"system": "diet-induced obesity (DIO) mouse model", "test": "Final tissue/organ weights at end of study (day 28/29), DIO mice", "details": "control group = 0.00 (FIG. 2B: % change vs. control), in %", "text": "DIO mice that have been fed a high fat diet for at least 20 weeks were distributed into 4 different groups balanced by body fat content as determined by MRI and blood glucose. On day 0, all mice were implanted with osmotic pumps (Alzet, Cat #2004), in which the stainless steel flow moderators were replaced with PEEK tubing (DURECT Corporation, Cat #0002496) to allow for MRI measurements during the experiment. Pumps for groups 1 and 2 contained PBS, while pumps used for groups 3 and 4 contained Semaglutide (0.833 mg/mL for 7 ug/day infusion). […]\nBody composition using MRI and fed blood glucose using a glucometer from tail bleeds were measured weekly in the morning. […] For the OGTT, mice were fasted for 4 hours, and baseline glucose was measured. Subsequently, 2 g/kg glucose was administered to the mice by oral gavage, and glucose was measured again after 30, 60, 90, and 120 minutes. On day 26, 6 hour fasted blood glucose was measured, and mice were bled for insulin assessment as described above. […] One lobe of the liver was fresh frozen to allow for triglyceride extraction and quantification using standard protocols. […] H&E, as well as smooth muscle actin (SMA), staining was performed, and slides were subjected to quantification using Halo software. […]"}, "[6]": {"system": "diet-induced obesity (DIO) mouse model", "test": "Oral glucose tolerance test (OGTT) and fasted blood glucose, DIO mice", "text": "as §1\nas §2, with “Subsequently, 2 g/kg glucose was administered to the mice by oral gavage, and glucose was measured again after 30, 60, 90, and 120 minutes.” left out"}, "[7]": {"system": "obese adult male cyno non-human primate (NHP) with NASH", "test": "Obese NHP study of body weight, liver and metabolic effects of adding myostatin/activin A blockade onto GLP-1R agonism", "details": "week 12", "procedure": "An obese NHP study of the body weight, liver and metabolic effects of adding on myostatin/activin A blockade onto GLP-1R agonism was carried out. FIG. 10 sets forth the study and timeline for obese adult male cyno non-human primate (NHP) with NASH, stratified based on body weight and % body fat, n=10 per arm.\nThe treatment groups were: • vehicle; • Semaglutide; • Anti-Myostatin+anti-Activin A; • Semaglutide+anti-Myostatin; and • Semaglutide+anti-Myostatin+anti-Activin A. REGN1033 is an anti-Myostatin antibody, and REGN2477 is an anti-Activin A antibody. The GLP-1 agonist employed was Semaglutide. Semaglutide was administered at 10 μg/kg. Anti-Myostatin antibody was administered at 50 mg/kg. Anti-Activin A antibody was administered at 50 mg/kg.\nPostmenopausal women received 10 mg/kg (anti-myostatin+anti-activin A) IV, Q2W. Thigh muscle volume was measured via MRI, and android fat mass was measured via iDXA, both over 30 weeks. Obese non-human primates received 50 mg/kg anti-myostatin+50 mg/kg anti-activin A (QW). Total lean mass was measured via iDXA, and total fat mass was measured via iDXA, both over 28 weeks. […]"}}, "data": [{"substance": "Semaglutide", "values": [{"measurement": "fed insulin over time, Mean", "setting": "[1]; Day 6", "result": 6.2175}, {"measurement": "fed insulin over time, Mean", "setting": "[1]; Day 13", "result": 2.296}, {"measurement": "Fed glucose over time, Mean", "setting": "[1]; Day 20, in mg/dL (unit assumed)", "result": 259.5}, {"measurement": "fed insulin over time, Mean", "setting": "[1]; Day −5 (before treatment)", "result": 16.285}, {"measurement": "Fed glucagon levels at day 20, Mean", "setting": "[1]; day 20", "result": 4.106}, {"measurement": "Liver fat area, Mean", "setting": "[2]; H&E liver histology", "result": 28.34}, {"measurement": "SMA positive area (% of fat-free area), Mean", "setting": "[2]; liver SMA staining", "result": "6.942 % of fat-free area"}, {"measurement": "SMA positive area (normalized to nuclei amount), Mean", "setting": "[2]; liver SMA staining", "result": 14.32}, {"measurement": "Liver triglycerides, Mean", "setting": "[2]; liver tissue", "result": 153.6}, {"measurement": "Plasma measurements - Liver panel, AST", "setting": "[3]", "result": 103.625}, {"measurement": "Plasma measurements - Liver panel, Chol", "setting": "[3]", "result": 193.75}, {"measurement": "Plasma measurements - Liver panel, NEFA", "setting": "[3]", "result": 0.5837}, {"measurement": "Body weight changes over time, Mean", "setting": "[4]; Day 5", "result": "−11.33"}, {"measurement": "Body weight changes over time, Mean", "setting": "[4]; Day 6", "result": "−12.46"}, {"measurement": "Body weight changes over time, Mean", "setting": "[4]; Day 9", "result": "−15.25"}, {"measurement": "Body weight changes over time, Mean", "setting": "[4]; Day 12", "result": "−16.20"}, {"measurement": "Body weight changes over time, Mean", "setting": "[4]; Day 13", "result": "−15.72"}, {"measurement": "Body weight changes over time, Mean", "setting": "[4]; Day 14", "result": "−17.49"}, {"measurement": "Body weight changes over time, Mean", "setting": "[4]; Day 19", "result": "−15.74"}, {"measurement": "Body weight changes over time, Mean", "setting": "[4]; Day 23", "result": "−13.16"}, {"measurement": "Body weight changes over time, Mean", "setting": "[4]; Day 26", "result": "−12.53"}, {"measurement": "Body weight changes over time, Mean", "setting": "[4]; Day −6 (before treatment)", "result": 0}, {"measurement": "Fat mass changes over time, Mean", "setting": "[4]; Day 5", "result": "−23.75"}, {"measurement": "Lean mass changes over time, Mean", "setting": "[4]; Day 5", "result": "−3.50"}, {"measurement": "Fat mass changes over time, Mean", "setting": "[4]; Day 12", "result": "−33.78"}, {"measurement": "Lean mass changes over time, Mean", "setting": "[4]; Day 12", "result": "−4.09"}, {"measurement": "Fat mass changes over time, Mean", "setting": "[4]; Day 19", "result": "−34.24"}, {"measurement": "Lean mass changes over time, Mean", "setting": "[4]; Day 19", "result": "−2.43"}, {"measurement": "Lean mass changes over time, Mean", "setting": "[4]; Day 25", "result": "−1.93"}, {"measurement": "Fat mass changes over time, Mean", "setting": "[4]; Day 26", "result": "−29.52"}, {"measurement": "Fat mass changes over time, Mean", "setting": "[4]; Day −6 (before treatment)", "result": 0}, {"measurement": "Lean mass changes over time, Mean", "setting": "[4]; Day −6 (before treatment)", "result": 0}, {"measurement": "decrease in body weight as compared with the control group", "setting": "[4]; vs control group", "result": "approximately 14%"}, {"measurement": "decrease in lean mass as compared with the control group", "setting": "[4]; vs control group", "result": "3-4%"}, {"measurement": "loss in fat mass compared to the control group", "setting": "[4]; vs control group (Group 1)", "result": "approximately 18%"}, {"measurement": "Final organ weights, Gonadal Fat, Mean", "setting": "[5]", "result": "−10.56"}, {"measurement": "Final organ weights, Subq Fat, Mean", "setting": "[5]", "result": "−22.58"}, {"measurement": "Area under the curve of OGTT at day 23, Mean", "setting": "[6]; 2 g/kg glucose oral gavage, day 23", "result": 27698}, {"measurement": "4 hrs fasted glucose levels at day 23, Mean", "setting": "[6]; 4 hrs fasted, day 23, in mg/dL (unit assumed)", "result": 192.1}, {"measurement": "6 hrs fasted glucose levels at day 26, Mean", "setting": "[6]; 6 hrs fasted, day 26, in mg/dL (unit assumed)", "result": 172.6}, {"measurement": "oGTT measurement on day 23 (glucose), Mean", "setting": "[6]; Time 0 min", "result": 192.125}, {"measurement": "oGTT measurement on day 23 (glucose), Mean", "setting": "[6]; Time 15 min", "result": 433.5}, {"measurement": "oGTT measurement on day 23 (glucose), Mean", "setting": "[6]; Time 30 min", "result": 310.75}, {"measurement": "oGTT measurement on day 23 (glucose), Mean", "setting": "[6]; Time 60 min", "result": 230.75}, {"measurement": "lean mass (in words)", "setting": "[7]", "result": "lean mass loss"}]}]}
